According to US12448388B2, “PRMT5 inhibitors and uses thereof” (Gilead Sciences, Inc., priority 2023, dated 2025):
Converted amounts (≈) assume the structure as drawn. Where two headings read alike, the source gives them in different places.

Legend:
[1] = Hepatocyte stability assay, human; assay type: in vitro ADME; settings: human hepatocytes, 1 μM
Method: BioreclamationIVT (Baltimore, MD) provided the cryopreserved hepatocytes, hepatocyte thawing (HT) medium, and Krebs-Henseleit buffer (KHB) medium. The stock solution concentration was 1 M in DMSO and was then diluted further in acetonitrile/water (1:1 v/v). All other chemicals were purchased from Sigma-Aldrich (St. Louis, MO) or Thermo Fisher Scientific (Waltham, MA).
The quench solution used to stop reactions in the hepatocyte incubations was comprised of 100% (v/v) acetonitrile. Internal Standard/Quench (IS/Q) solution used to stop reactions with the positive control also contained 200 nM Labetalol.
Metabolic Stability in Cryopreserved Hepatocytes: Test compounds, or the positive control metabolic substrate, was incubated in suspensions of cryopreserved hepatocytes at a final concentration of 1 μM. Vials containing cryopreserved hepatocytes were removed from liquid nitrogen and immediately immersed in a 37° C. water bath. The vials were swirled gently until the contents had thawed. They were then immediately emptied into 48 mL of pre-warmed thawing medium in a 50 mL conical tube. Cells remaining in the vial were re-suspended with 1.0 mL of pre-warmed thawing medium and added to the conical tube. The tube was capped and then gently inverted several times to re-suspend the hepatocytes. The cell suspension was centrifuged at 500×g for 10 minutes at room temperature and the supernatant discarded. The cell pellet was loosened by gently swirling the centrifuge tube. Non-supplemented KHB medium was added to obtain the appropriate target cell density. The viabilities of all cell preparations were ≥85%, assessed by Trypan blue dye exclusion.
For incubations, aliquots of hepatocyte suspension (250 μL containing a cell concentration of 2×10^6 cells/mL) were added to 250 μL of 2 μM substrate (test compound or positive control) in supplemented KHB in duplicate wells in a 24-well plate. Final concentration in the incubations were 1×10^6 cells/mL and 1 μM substrate. A cell-free control incubation (KHB only) was also included. The incubations were carried out with gentle shaking in a 37° C. incubator under a humid atmosphere of 95% air/5% CO2 (v/v). Aliquots (100 μL) were removed after 0, 1, 3, and 6 hours and added to 200 μL quenching solution. The samples were then placed on a shaker for 10 min followed by centrifugation at 3000×g for 20 min. The supernatant was transferred to a new plate and diluted with 100 μL of water to reduce the organic content and then placed on a shaker for 10 mins. Samples were injected and analyzed with methods described below.
Liquid Chromatography: Quantification of positive control and test compound was performed by analyte/internal standard peak area ratios (PAR) measured on a Thermo Scientific™ Q Exactive™ Hybrid Quadrupole-Orbitrap Mass Spectrometer MS/MS with an electrospray interface operating in positive ion mode. The mass spectrometer was coupled to a Dionex Ultimate® 3000 HPLC system. Samples (10 μL aliquots) were injected with a Leap Technologies HTC PAL autosampler. For positive control, the column used was a Thermo Scientific™ Hypersil GOLD™ HPLC column ([…], 50×2.1 mm). Mobile phase A consisted of 95% (v/v) water, 5% (v/v) acetonitrile, and contained 0.1% (v/v) formic acid (FA). Mobile phase B consisted of 95% (v/v) acetonitrile, 5% (v/v) water, and contained 0.1% (v/v) FA. Elution was achieved, at a flow rate of 0.5 mL/min, by a series of linear gradients: initial condition was 5% B at 0 min, isocratic for 20 seconds; then linear gradient to 95% B over 90 seconds, followed by isocratic for 60 seconds at 95% B, and re-equilibrated to initial conditions over 70 seconds.
Metabolic stabilities of positive control and test compound were determined by measuring the rates of disappearance of the parent with time by determining the % of parent remaining at time t (Ct) {Obach 1997}.
Data (% of parent remaining) were plotted on a semi-log scale and fitted using an exponential fit: […]

[2] = Cell viability assay (CellTiter-Glo, 7 days), HCT116 WT; assay type: cell-based; settings: human, HCT116 WT cells, 7 days of treatment, CTG
In short: (§1)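 First, compounds are serially diluted in DMSO and dispensed into plates, which are frozen until seeding. Next, cells are added and incubated 7 days at 37 °C, 5% CO2, 90% humidity. Finally, CellTiter-Glo reagent is added and luminescence is measured to derive CC50.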

[3] = PBS solubility (kinetic solubility from DMSO stocks); assay type: physicochemical; settings: 22 °C, aqueous buffer, kinetic from dmso stock; 1x PBS pH 7.4, 1.0% DMSO, 24-hour incubation at ambient temperature
Method: Buffer Preparation: 1×PBS, 7.4: Phosphate Buffered Saline solution 10×, PBS (Fisher Bioreagent, part number BP399-500) 50 mL was added to approximately 450 mL HPLC grade H2O. The volume of the solution was then adjusted to 500 mL for a total dilution factor of 1:10 and a final PBS concentration of 1×. The pH of the final solution was measured and found to be 7.4.
The final DMSO Concentration is 1.0% and maximum theoretical compound concentration is 100 μM (assuming stock concentration of 10 mM). The filter plate was sealed. Following 24-hour incubation at ambient temperature (20.8-24.0° C.), the samples were vacuum filtered, and the filtrates were collected in a 96 well polypropylene plate for analysis. The collection plate was sealed for analysis. Filtrates were injected into the nitrogen detector for quantification on Analiza's Automated Discovery Workstation. The results are reported here in both μM and μg/mL.
Calculation of Results: The equimolar nitrogen response of the detector is calibrated using standards which span the dynamic range of the instrument from 0.08 to 4500 μg/ml nitrogen. The filtrates were quantified with respect to this calibration curve. The calculated solubility values are corrected for background nitrogen present in the DMSO, and the media used to prepare the samples. All reported values for compounds containing adjacent nitrogen atoms in a ring structure should be increased by ˜25%. […] The solubility results presented assume that the samples were free of nitrogen containing impurities and are stable under the assay conditions.

[4] = MDR1/BCRP assay: permeability in cPgp-KO-MDCK-WT cells; assay type: in vitro ADME; settings: dog, pH 7.4
Method: The cells were maintained in an incubator at 37° C., 90% humidity, and 5% CO2 until reaching confluence over 5 days in 96-well transwell plates. Experiments were conducted using an HBSS donor buffer (Invitrogen) containing 10 mM HEPES and 15 mM glucose, adjusted to pH 7.4. The receiver well contained HBSS buffer supplemented with 1% BSA, 10 mM HEPES, and 15 mM glucose, and the pH was adjusted to 7.4. TEER values were measured to assess membrane integrity after an initial equilibration with BSA-free transport buffer for 15 minutes. The experiment was started by adding dosing solutions containing test compounds at 1 μM. Cells were dosed on the apical (A) side or basolateral (B) side at 100 μl and 200 μl, respectively, to determine forward (A to B) and reverse (B to A) permeability. At the 2-hour time point, 50 μl samples were collected from the receiver compartment. Each compound was tested in 2 separate replicate wells for each condition. All samples were immediately collected into plates, and 50 μL of acetonitrile was added. Subsequently, 350 μl of 30:70 methanol: acetonitrile containing internal standard was added to precipitate proteins and stabilize the test compounds. To test for non-specific binding and compound instability, the total amount of the drug was quantified at the end of the experiment and compared to the material present in the original dosing solution as a percentage of the recovery. All samples were analyzed by LC-MS/MS using electrospray ionization.
The apparent permeability, Papp, and % recovery were calculated as follows: […]

[5] = tested on: HCT116 MTAP-deleted cell lines; assay: Cell viability assay (CellTiter-Glo, 7 days), HCT116 MTAP-deleted; assay type: cell-based; settings: for Selectivity: HCT116 WT CC50 versus HCT116 MTAP^del CC50; for plasma-adjusted CC50 (paCC50): paCC50 = CC50-HCT116-MTAP^del * (% free CCM/% free human plasma); for CC50: Homo sapiens, HCT116 MTAP-deleted
In short: as §1

[6] = HCT-116, 168 h, 7 days of treatment, CTG, read-out: CC50-HCT116-MTAP^del
[7] = HCT-116, cell viability, class symbols, read-out: CC50

Row | Human Predicted Hepatocyte CL [1] [mL/min/kg] | solubility at 24 h [3] [µM] | Papp A→B at 2 h, 1 µM [4] [×10⁻⁶ cm/s] | Structure (SMILES) | CC50 at 7 days [2] [nM] | Selectivity [5] | plasma-adjusted CC50 (paCC50) ([5]; HCT-116) [nM] | CC50 [5, 6] [nM] | CC50 [5, 7] [nM]
1 | 0.83 | 25.2 (≈ 11.9 µg/mL) | 9 | Nc1nc2cc(F)c(C(=O)N3CC[C@H]4C[C@@H]3c3ccc(C(F)(F)F)nc3O4)cc2n2cncc12 [Ff-366, (4-amino-7-fluoroimidazo[1,5-a]quinoxalin-8-yl)((2S,6R)-9-(trifluoromethyl)-3,4-dihydro-2H-2,6-methanopyrido[2,3-b][1,5]oxazocin-5(6H)-yl)methanone] | 2170 | 75 | 206 | 29 | < 100
2 | 8 | 4 (≈ 1.89 µg/mL) | 15.1 | [2H]C1([2H])CC[C@@H]2Oc3cc(C(F)(F)F)ccc3[C@@H]2N1C(=O)c1cc2c(cc1F)nc(N)c1cncn12 [Ff-121, (4-amino-7-fluoroimidazo[1,5-a]quinoxalin-8-yl)((4aS,9bS)-7-(trifluoromethyl)-3,4,4a,9b-tetrahydrobenzofuro[3,2-b]pyridin-1(2H)-yl-2,2-d2)methanone] | 459 | 153 | 106 | 3 | < 100
3 | 4 | 1.7 (≈ 0.827 µg/mL) | 18.5 | Cc1ncc2c(N)nc3cnc(C(=O)N4CCC[C@@H]5Oc6cc(C(F)(F)F)cc(F)c6[C@@H]54)cc3n12 [Fg-67, (4-amino-1-methylimidazo[1,5-a]pyrido[3,4-e]pyrazin-8-yl)((4aS,9bS)-9-fluoro-7-(trifluoromethyl)-3,4,4a,9b-tetrahydrobenzofuro[3,2-b]pyridin-1(2H)-yl)methanone] | 4260 | 112 | 402 | 38 | –
4 | 4.67 | < 1 | 19.3 | Cc1ncc2c(N)nc3cnc(C(=O)N4CCC[C@@H]5Oc6cc(OC(F)(F)F)cc(F)c6[C@@H]54)cc3n12 [Fg-66, (4-amino-1-methylimidazo[1,5-a]pyrido[3,4-e]pyrazin-8-yl)((4aS,9bS)-9-fluoro-7-(trifluoromethoxy)-3,4,4a,9b-tetrahydrobenzofuro[3,2-b]867yridine-1(2H)-yl)methanone] | 8370 | 116 | 788 | 72 | –
5 | 0.83 | 54.7 (≈ 25.8 µg/mL) | 11.3 | Nc1nc2cc(F)c(C(=O)N3CCC[C@@H]4Oc5cc(C(F)(F)F)ncc5[C@@H]43)cc2n2cncc12 [Ff-117, (4-amino-7-fluoroimidazo[1,5-a]quinoxalin-8-yl)((4aS,9bS)-7-(trifluoromethyl)-3,4,4a,9b-tetrahydrofuro[3,2-b:4,5-c′]dipyridin-1(2H)-yl)methanone] | 1250 | 69 | 269 | 18 | < 100
6 | 5.17 | – | 12.6 | Nc1nc2ccc(C(=O)N3CCC[C@@H]4Oc5cc(C(F)(F)F)cc(F)c5[C@@H]43)cc2n2cncc12 [Ff-693, (4-aminoimidazo[1,5-a]quinoxalin-8-yl)((4aS,9bS)-9-fluoro-7-(trifluoromethyl)-3,4,4a,9b-tetrahydrobenzofuro[3,2-b]pyridin-1(2H)-yl)methanone] | 1880 | 125 | 247 | 15 | –
7 | 4.5 | 2.9 (≈ 1.41 µg/mL) | 21 | Cc1ncc2c(N)nc3cnc(C(=O)N4CC[C@H]5C[C@@H]4c4cc(F)c(C(F)(F)F)cc4O5)cc3n12 [Ff-696, (4-amino-1-methylimidazo[1,5-a]pyrido[3,4-e]pyrazin-8-yl)((2S,6R)-8-fluoro-9-(trifluoromethyl)-3,4-dihydro-2H-2,6-methanobenzo[b][1,5]oxazocin-5(6H)-yl)methanone] | 1410 | 83 | 198 | 17 | –
8 | 1.2 | < 1 | 14.7 | Cc1ncc2c(N)nc3cnc(C(=O)N4CCC[C@@H]5Oc6cc(C(F)(F)F)ccc6[C@@H]54)cc3n12 [Ff-344, (4-amino-1-methylimidazo[1,5-a]pyrido[3,4-e]pyrazin-8-yl)((4aS,9bS)-7-(trifluoromethyl)-3,4,4a,9b-tetrahydrobenzofuro[3,2-b]pyridin-1(2H)-yl)methanone] | 2300 | 85 | 476 | 27 | < 100
